According to patent US8673882B2, “Inhibitors of autotaxin” (University of Tennessee Research Foundation, priority 2011, dated 2014):
Read-outs that look alike come from different tables or passages of the source.

What was measured:
recombinant human ATX = recombinant human ATX (Homo sapiens, UniProt Q13822); assay: Autotaxin inhibition screening assay (FS-3 FRET substrate); format: biochemical; conditions: for remaining activity at 10 µM: 1 μM FS-3, 37° C., read-out: ATX Activity, % control (10 μM); for inhibition at 10 µM: read-out: inhibition (reduction) of FS3 hydrolysis
Protocol: A 10 μM concentration of the compound is added to 2 nM recombinant human ATX and the FRET (Fluorescence Resonance Energy Transfer) ATX substrate FS-3.
As the first level of screen, 50 μl of recombinant-ATX (2 nM in final concentration) in assay buffer [(Tris 50 mM, NaCl 140 mM, KCl 5 mM, CaCl2 1 mM, MgCl2 1 mM (pH 8.0)] was mixed with 25 μL of FS-3 (Echelon Biosciences, Inc., Salt lake city, Utah), final concentration 1 μM, and 25 μl of test compound was dissolved in assay buffer with 40 μM bovine serum albumin (Sigma, St. Louis, Mo.) in 96-well Costar black-well plate. FS-3 fluorescence at excitation and emission wavelengths of 485 and 538 nm, respectively, were monitored using a FLEXstation II (Molecular Devices, Sunnyvale, Calif.) for 2 h of incubation at 37° C. The differences between time 0 and 120 min were calculated individually and normalized to the vehicle control. The mean±SD of triplicate samples was expressed as percentage of ATX activity. The ATX activity in the presence of the test compounds was compared to vehicle using the […] p<0.05 was considered significant.
The first level of testing was done using 10 μM concentrations of the compounds shown in Tables 1 and 2 added to 2 nM recombinant human ATX and the FRET substrate FS-3. After a 2 h incubation the amount of FS3 hydrolyzed was measured and the residual ATX activity was expressed as a percent of the vehicle-treated sample less the autolysis of FS3 in the absence of ATX.

NPP7 = target: T1, NPP7 (Homo sapiens, UniProt Q6UWV6); assay: NPP-7 inhibition assay (pNPPC substrate); format: biochemical; conditions: 10 μM compound; 8.3 nM enzyme; 10 μM pNPPC; read-out: NPP7 Activity, % control (10 μM)
T1 sequence (Q6UWV6 22-458): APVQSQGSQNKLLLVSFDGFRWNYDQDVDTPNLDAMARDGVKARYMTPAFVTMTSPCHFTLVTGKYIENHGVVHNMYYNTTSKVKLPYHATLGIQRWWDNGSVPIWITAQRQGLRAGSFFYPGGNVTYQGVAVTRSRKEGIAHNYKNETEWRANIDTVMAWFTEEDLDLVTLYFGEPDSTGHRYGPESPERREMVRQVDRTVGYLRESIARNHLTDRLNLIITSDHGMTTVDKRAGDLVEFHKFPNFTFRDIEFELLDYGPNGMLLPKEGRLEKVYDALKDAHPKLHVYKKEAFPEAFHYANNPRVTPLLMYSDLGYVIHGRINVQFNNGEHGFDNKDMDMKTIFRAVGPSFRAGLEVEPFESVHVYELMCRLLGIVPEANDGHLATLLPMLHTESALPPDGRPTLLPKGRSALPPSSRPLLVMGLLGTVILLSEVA
Protocol: NPP6 and NPP7 are the only NPP isoforms other than ATX that are known to utilize lysophospholipid phosphodiesters as substrates. Therefore, the specificity of the chemical compounds of the invention regarding ATX was addressed by determining the activity of NPP6 and NPP7 in the presence and absence of these analogs.
Inhibition of NPP6 and NPP7 was evaluated using recombinant, purified proteins, the synthetic substrate para-nitrophenylphosphocholine (pNPPC) and a Synergy II plate reader (BioTek, Winooski, Vt.). The final concentration of each enzyme was 8.3 nM and pNPPC was 10 μM. All analogs were tested at single 10 μM concentrations. Absorbance of liberated para-nitrophenol at 405 nm was determined up to 1 hour (where responses were linear) and was normalized to vehicle control.

[1] = 10 μM compound, 2 nM recombinant human ATX, 2 h

inhibition at 10 µM (recombinant human ATX; [1]) [%]	SMILES	remaining activity at 10 µM (recombinant human ATX; [1]) [%]	inhibition at 10 µM (recombinant human ATX) [%]	remaining activity at 10 µM (NPP7) [%]
	CCCCCCCCCCCCCCCc1ccc(CP(=O)(O)O)cc1 [Compound 22, 4-Pentadecylbenzylphosphonic acid]	5.2	95	96.7
83	CCCCCCCCCCC/C=C/c1ccc2cc(CP(=O)(O)O)ccc2c1 [Compound 30b, (E)-6-Tridec-1-enyl-naphthalen-2-yl-methylphosphonic acid]	17.3		96.5
